The test deals with BDF1 mice, s.c. Lewis lung carcinoma, T/C %. As to the kind of experiment: NCI In Vivo Anticancer Drug Screen. Data for tumor model Lewis Lung Carcinoma (subcutaneous) in B6D2F1 (BDF1) mice. The method, then: The antitumor activity of compounds was measured in mice bearing transplantable tumors. Survival or tumor size were measured and the results are expressed as the measurement made in the treated group (T) divided by the measurement made in the vehicle treated control group (C). The tumor model used in this assay is Lewis Lung Carcinoma (subcutaneous) in B6D2F1 (BDF1) mice

The mark [1] stands for this setting: endpoint: mean tumor weight, dose: 0.25 mg/kg/injection, schedule: Q01DX011 (ip), vehicle: saline, higher = larger tumour.
Setting [2] is: endpoint: mean tumor weight, dose: 50.0 mg/kg/injection, schedule: Q01DX011 (ip), vehicle: saline, higher = larger tumour.
[3] abbreviates: endpoint: mean tumor weight, dose: 25.0 mg/kg/injection, schedule: Q01DX011 (ip), vehicle: saline, higher = larger tumour.

Values joined by “and” are separate entries in the source; they are usually repeats but may differ in a detail not shown here. Equal values may be shown once. Records with an inconclusive call do not appear.

For the compound `CC[C@@]1(O)C[C@H](OC2CC(N(C)C)C(OC3CC(O)C(OC4CCC(=O)C(C)O4)C(C)O3)C(C)O2)c2c(cc3c(c2O)C(=O)c2c(O)cccc2C3=O)[C@H]1C(=O)OC` (stereo partly drawn), where the note is “endpoint: median survival time, dose: 1.5 mg/kg/injection, schedule: Q01DX009 (ip), vehicle: Klucel (hydroxypropylcellulose) (HPC), higher = longer survival”, the T/C was 104 % of control.
Regarding `CC1C[N-]CC(C)C1.CC1C[N-]CC(C)C1.CC1C[N-]CC(C)C1.CC1C[N-]CC(C)C1.[Cl][Rh][Cl]` (stereo not drawn), the T/C is, setting by setting: (endpoint: median survival time, dose: 1.5 mg/kg/injection, schedule: Q01DX009 (ip), vehicle: saline, higher = longer survival) 104 % of control; (endpoint: median survival time, dose: 3.0 mg/kg/injection, schedule: Q01DX009 (ip), vehicle: saline, higher = longer survival) 114 % of control; (endpoint: median survival time, dose: 6.0 mg/kg/injection, schedule: Q01DX009 (ip), vehicle: saline, higher = longer survival) 105 % of control.
`C[C@]12CC[C@H](OC3OC(CO)C(O)C(O)C3O)C[C@H]1CC[C@@H]1[C@@H]2CC[C@]2(C)[C@@H](C3=CCOC3=O)CC[C@]12O` (stereo partly drawn): the T/C (endpoint: mean tumor weight, dose: 0.25 mg/kg/injection, schedule: Q01DX011 (ip), vehicle: carboxymethylcellulose (CMC), higher = larger tumour) is 33 % of control; the T/C under setting [1] was 41 % of control; the T/C (endpoint: mean tumor weight, dose: 0.5 mg/kg/injection, schedule: Q01DX011 (ip), vehicle: carboxymethylcellulose (CMC), higher = larger tumour) was 47 % of control; the T/C (endpoint: mean tumor weight, dose: 0.5 mg/kg/injection, schedule: Q01DX011 (ip), vehicle: saline, higher = larger tumour) was 16 % of control; the T/C (endpoint: mean tumor weight, dose: 1.0 mg/kg/injection, schedule: Q01DX011 (ip), vehicle: carboxymethylcellulose (CMC), higher = larger tumour) is 14 % of control.
For the compound `COc1ccc(Nc2ccnc3cc(Cl)ccc23)cc1CN(CCCl)CCCl`, the T/C is, setting by setting: (endpoint: mean tumor weight, dose: 0.06 mg/kg/injection, schedule: Q01DX011 (ip), vehicle: other, higher = larger tumour) 113 % of control; (endpoint: mean tumor weight, dose: 0.12 mg/kg/injection, schedule: Q01DX011 (ip), vehicle: other, higher = larger tumour) 94 % of control; (endpoint: mean tumor weight, dose: 0.25 mg/kg/injection, schedule: Q01DX011 (ip), vehicle: other, higher = larger tumour) 85 % of control; (endpoint: mean tumor weight, dose: 0.5 mg/kg/injection, schedule: Q01DX011 (ip), vehicle: other, higher = larger tumour) 26 % of control and 44 % of control; (endpoint: mean tumor weight, dose: 1.0 mg/kg/injection, schedule: Q01DX011 (ip), vehicle: other, higher = larger tumour) 32 % of control.
With `Nc1ccc(Cl)c(N)c1`, the T/C (endpoint: mean tumor weight, dose: 22.0 mg/kg/injection, schedule: Q01DX011 (ip), vehicle: saline, higher = larger tumour) is 115 % of control; the T/C (endpoint: mean tumor weight, dose: 33.0 mg/kg/injection, schedule: Q01DX011 (ip), vehicle: saline, higher = larger tumour) was 117 % of control; the T/C under setting [2] was 105 % of control.
With `COc1cc2c(c(OC)c1OC)-c1ccc(OC)c(=O)cc1[C@@H](NC(C)=O)CC2`, the T/C was 65 % of control (endpoint: mean tumor weight, dose: 0.06 mg/kg/injection, schedule: Q01DX011 (ip), vehicle: saline, higher = larger tumour); 61 % of control (endpoint: mean tumor weight, dose: 0.12 mg/kg/injection, schedule: Q01DX011 (ip), vehicle: saline, higher = larger tumour); 46 % of control under setting [1]; 100 % of control (endpoint: median survival time, dose: 0.13 mg/kg/injection, schedule: Q01DX009 (ip), vehicle: saline, higher = longer survival); 98 % of control (endpoint: median survival time, dose: 0.25 mg/kg/injection, schedule: Q01DX009 (ip), vehicle: saline, higher = longer survival); 99 % of control (endpoint: median survival time, dose: 0.5 mg/kg/injection, schedule: Q01DX009 (ip), vehicle: saline, higher = longer survival). Further, the T/C is, setting by setting: (endpoint: median survival time, dose: 63.0 micrograms/kg/injection, schedule: Q01DX009 (ip), vehicle: saline, higher = longer survival) 103 % of control; (endpoint: median survival time, dose: 125.0 micrograms/kg/injection, schedule: Q01DX009 (ip), vehicle: saline, higher = longer survival) 106 % of control; (endpoint: median survival time, dose: 250.0 micrograms/kg/injection, schedule: Q01DX009 (ip), vehicle: saline, higher = longer survival) 108 % of control; (endpoint: median survival time, dose: 500.0 micrograms/kg/injection, schedule: Q01DX009 (ip), vehicle: saline, higher = longer survival) 108 % of control; (endpoint: median survival time, dose: 1000.0 micrograms/kg/injection, schedule: Q01DX009 (ip), vehicle: saline, higher = longer survival) 91 % of control.
Consider `COc1ccc2c(=O)cc(-c3ccccc3)n(C)c2c1`, for which the T/C is, setting by setting: under setting [2], 109 % of control; (endpoint: mean tumor weight, dose: 100.0 mg/kg/injection, schedule: Q01DX011 (ip), vehicle: saline, higher = larger tumour) 83 % of control; (endpoint: mean tumor weight, dose: 200.0 mg/kg/injection, schedule: Q01DX011 (ip), vehicle: saline, higher = larger tumour) 79 % of control.
For the compound `O=CN(O)CC(=O)O`, where the note is “endpoint: median survival time, dose: 3000.0 mg/kg/injection, schedule: Q01DX001 (ip), vehicle: saline, higher = longer survival”, the T/C was 115 % of control.
For `C1CCNC1`, the T/C (endpoint: mean tumor weight, dose: 1.56 mg/kg/injection, schedule: Q01DX011 (ip), vehicle: saline, higher = larger tumour) is 65 % of control; the T/C (endpoint: mean tumor weight, dose: 3.13 mg/kg/injection, schedule: Q01DX011 (ip), vehicle: saline, higher = larger tumour) is 87 % of control; the T/C (endpoint: mean tumor weight, dose: 6.25 mg/kg/injection, schedule: Q01DX011 (ip), vehicle: saline, higher = larger tumour) was 117 % of control; the T/C under setting [3] was 73 % of control; the T/C under setting [2] was 67 % of control.
As for `CCCCCCCCCCCCCCCCCC(=O)NN`, the T/C (endpoint: median survival time, dose: 200.0 mg/kg/injection, schedule: Q01DX009 (ip), vehicle: Klucel (hydroxypropylcellulose) (HPC), higher = longer survival) is 120 % of control.
`N/C(=N\Cl)C(Cl)(Cl)Cl`: the T/C runs as follows: (endpoint: median survival time, dose: 6.25 mg/kg/injection, schedule: Q01DX009 (ip), vehicle: other, higher = longer survival) 101 % of control; (endpoint: median survival time, dose: 12.5 mg/kg/injection, schedule: Q01DX009 (ip), vehicle: other, higher = longer survival) 110 % of control; (endpoint: median survival time, dose: 25.0 mg/kg/injection, schedule: Q01DX009 (ip), vehicle: other, higher = longer survival) 100 % of control; (endpoint: median survival time, dose: 50.0 mg/kg/injection, schedule: Q01DX009 (ip), vehicle: other, higher = longer survival) 96 % of control.
Take `COC1=C(N2CC2)C(=O)C(OC)=C(N2CC2)C1=O`: the T/C was 97 % of control (endpoint: median survival time, dose: 0.25 mg/kg/injection, schedule: Q01DX009 (ip), vehicle: Klucel (hydroxypropylcellulose) (HPC), higher = longer survival); 106 % of control (endpoint: median survival time, dose: 0.5 mg/kg/injection, schedule: Q01DX009 (ip), vehicle: Klucel (hydroxypropylcellulose) (HPC), higher = longer survival); 101 % of control (endpoint: median survival time, dose: 1.0 mg/kg/injection, schedule: Q01DX009 (ip), vehicle: Klucel (hydroxypropylcellulose) (HPC), higher = longer survival); 111 % of control (endpoint: median survival time, dose: 2.0 mg/kg/injection, schedule: Q01DX009 (ip), vehicle: Klucel (hydroxypropylcellulose) (HPC), higher = longer survival); 124 % of control (endpoint: median survival time, dose: 4.0 mg/kg/injection, schedule: Q01DX009 (ip), vehicle: Klucel (hydroxypropylcellulose) (HPC), higher = longer survival).
Consider `CC1CCCCN1` (stereo not drawn), for which the T/C is 95 % of control (endpoint: mean tumor weight, dose: 12.5 mg/kg/injection, schedule: Q01DX011 (ip), vehicle: saline, higher = larger tumour); 85 % of control under setting [3]; 80 % of control under setting [2].
On to `CC1CCC2(OC1)OC1C(O)C3C4CCC5CC(OC6OC(CO)C(OC7OC(CO)C(O)C(OC8OCC(O)C(O)C8O)C7OC7OC(CO)C(O)C(OC8OC(CO)C(O)C(O)C8O)C7O)C(O)C6O)C(O)CC5(C)C4CCC3(C)C1C2C` (stereo not drawn), for which the T/C (endpoint: mean tumor weight, dose: 6.2 mg/kg/injection, schedule: Q01DX011 (ip), vehicle: carboxymethylcellulose (CMC), higher = larger tumour) is 47 % of control and 58 % of control; the T/C (endpoint: mean tumor weight, dose: 12.5 mg/kg/injection, schedule: Q01DX011 (ip), vehicle: carboxymethylcellulose (CMC), higher = larger tumour) is 93 % of control and 98 % of control; the T/C (endpoint: median survival time, dose: 1.25 mg/kg/injection, schedule: Q01DX009 (ip), vehicle: saline, higher = longer survival) was 115 % of control; the T/C (endpoint: median survival time, dose: 2.5 mg/kg/injection, schedule: Q01DX009 (ip), vehicle: saline, higher = longer survival) is 122 % of control; the T/C (endpoint: median survival time, dose: 5.0 mg/kg/injection, schedule: Q01DX009 (ip), vehicle: saline, higher = longer survival) is 111 % of control.
Take `O=S1(=O)CCCO1`: the T/C is 109 % of control (endpoint: mean tumor weight, dose: 10.0 mg/kg/injection, schedule: Q01DX011 (ip), vehicle: saline, higher = larger tumour); 102 % of control (endpoint: mean tumor weight, dose: 20.0 mg/kg/injection, schedule: Q01DX011 (ip), vehicle: saline, higher = larger tumour); 78 % of control (endpoint: mean tumor weight, dose: 40.0 mg/kg/injection, schedule: Q01DX011 (ip), vehicle: saline, higher = larger tumour).
With `O=[N+]([O-])c1ccc(/C=N\Nc2ccc([N+](=O)[O-])cn2)cc1`, the T/C reads like this: (endpoint: median survival time, dose: 12.5 mg/kg/injection, schedule: Q01DX009 (ip), vehicle: Klucel (hydroxypropylcellulose) (HPC), higher = longer survival) 88 % of control; (endpoint: median survival time, dose: 25.0 mg/kg/injection, schedule: Q01DX009 (ip), vehicle: Klucel (hydroxypropylcellulose) (HPC), higher = longer survival) 104 % of control.
Regarding `C[C@]12CCC(=O)C=C1CC[C@@H]1[C@@H]2C(=O)C[C@@]2(C)[C@H]1CC[C@]2(O)C(=O)CO`, the T/C (endpoint: mean tumor weight, dose: 100.0 mg/kg/injection, schedule: Q01DX011 (ip), vehicle: steriod suspending solution, higher = larger tumour) was 58 % of control; the T/C (endpoint: median survival time, dose: 5.0 mg/kg/injection, schedule: Q02DX009 (ip), vehicle: Klucel (hydroxypropylcellulose) (HPC), higher = longer survival) was 102 % of control; the T/C (endpoint: median survival time, dose: 10.0 mg/kg/injection, schedule: Q02DX009 (ip), vehicle: Klucel (hydroxypropylcellulose) (HPC), higher = longer survival) is 102 % of control; the T/C (endpoint: median survival time, dose: 20.0 mg/kg/injection, schedule: Q02DX009 (ip), vehicle: Klucel (hydroxypropylcellulose) (HPC), higher = longer survival) was 101 % of control; the T/C (endpoint: median survival time, dose: 40.0 mg/kg/injection, schedule: Q02DX009 (ip), vehicle: Klucel (hydroxypropylcellulose) (HPC), higher = longer survival) is 97 % of control and 102 % of control.
As to `ClCCn1cnc2c(SCc3ccccc3)ncnc21`, the T/C (endpoint: mean tumor weight, dose: 60.0 mg/kg/injection, schedule: Q01DX011 (ip), vehicle: other, higher = larger tumour) is 107 % of control; the T/C (endpoint: mean tumor weight, dose: 120.0 mg/kg/injection, schedule: Q01DX011 (ip), vehicle: other, higher = larger tumour) is 77 % of control; the T/C (endpoint: mean tumor weight, dose: 240.0 mg/kg/injection, schedule: Q01DX011 (ip), vehicle: other, higher = larger tumour) was 46 % of control.

Values taken from PubChem BioAssay AID270 (DTP/NCI, 2004).
